Values after ≈ are worked out from the molar mass of the structure shown.
How the values were obtained:
P. aeruginosa [1] = experiment: Minimal inhibitory concentration (MIC), Example V; type: cell-based; conditions: Pseudomonas aeruginosa
Protocol: (§1) THE ANTIBACTERIAL SCREEN - EXAMPLE V
(§2) THE ANTIBACTERIAL SCREEN - EXAMPLES W - Z (Autotiter IV)
(§3) (a) Compounds. All compounds to be screened are weighed (approx. 10 mg) on the day preceding the test date. Each compound is solubilized on the day of assay in appropriate solvent and diluted automatically in the Autotiter IV with distilled water (buffer can be employed here also).
(§4) Bacteria: Staphylococcus aureas Smith (or 209), Escherichia coli AB 1932-1, 1100/B22 and Vogel, Streptococcus pyogenes C203 Salmonella typhimurium 14028, Bacillus subtilis 6051-1, Klebsiella pneumoniae 10031, Pseudomonas aeruginosa 9027, Bordetella bronchiseptica 4617 and Staphylococcus epidermidis 12228.
(§5) (c) Inocula. Prior to utilization in the Autotiter IV, all bacteria are cultured for 18-20 hr. (37° C) in tryptose phosphate broth (TP), except, S. pyogenes C203, which is cultured in Brain Heart Infusion broth plus 10% normal horse serum. Immediately prior to testing, each culture is adjusted to an optical density of 0.10 (650 nm), employing a Bausch & Lomb Spectronic 20, and diluted subsequently into double strength medium to approximately 2 × 10^5 viable organisms per ml.
(§6) 1. An automated injector system dispenses 0.05 ml of diluent (sterile H2 O or buffer) to all cups of the autotiter trays from rows 2 through 7.
(§7) 2. The loops (for sequential dilutions of the compounds are moistened by immersion into 70% ethyl alcohol. After removal of excess alcohol by blotting, the loops are moved to the first row of cups in the autotray containing 0.10 ml of the compound to be diluted and tested (usually, this initial concentration is 500 to 1000 mcg/ml, but can be varied upward or downward). The loops are lowered and sequentially transfer the diluted solutions of the compound through row 7.
(§8) Immediately after each dilution is made, each cup is automatically inoculated with 0.05 ml of the appropriate test organism. This inoculation derives from a second injector system containing the organism in double-strength medium. The total operation consists of the automatic dilution of a single compound in each of 8 rows of the Autotiter try.
(§9) After these operations, we reverse the tray and a second compound is diluted over the other one-half of the tray and inoculated, subsequently, with 8 organisms. Thus, for each Autotiter Tray, two compounds are screened against 8 different organisms at dilutions ranging from 1:2 to 1:128.
(§10) (e) Incubation. The inoculated Autotiter trays are incubated at 37° C for 18 - 20 hr. At the end of this period, each tray is examined for the presence or absence of growth (turbidity). The lowest concentration of the compound inhibiting growth is recorded as the minimal inhibitory concentration (MIC).

S. aureus = experiment: Minimal inhibitory concentration (MIC), Example V; type: cell-based; conditions: Staphylococcus aureus
Protocol: as §1, §2, §3, §4, §5, §6, §7, §8, §9, §10

S. pyogenes = experiment: Minimal inhibitory concentration (MIC), Example V; type: cell-based; conditions: Streptococcus pyogenes
A. niger = experiment: Minimal inhibitory concentration (MIC), Example V; type: cell-based; conditions: Aspergillus niger
From the text: (§11) MINIMAL INHIBITORY CONCENTRATION OF 2-AMINO-2-METHYL-1-PROPYL
(§12) ^a Minimal inhibitory concentration expressed in parts per million
(§13) sequence inhibited the test organism at the higher concentrations.
as §1

E. coli = experiment: Minimal inhibitory concentration (MIC), Example V; type: cell-based; conditions: Escherichia coli
From the text: as §11, §12, §13, §1

T. mentagrophytes = experiment: Minimal inhibitory concentration (MIC), Example V; type: cell-based; conditions: Trichophyton mentagrophytes
From the text: as §11, §12, §13, §1

K. pneumoniae [2] = experiment: Minimal inhibitory concentration (MIC), Example V; type: cell-based; conditions: Klebsiella pneumoniae
Protocol: as §11, §12, §13, §1
Klebsiella pneumoniae ATCC# 10031
as §2, §3, §4, §5, §6, §7, §8, §9, §10

C. albicans = experiment: Minimal inhibitory concentration (MIC), Example V; type: cell-based; conditions: Candida albicans
From the text: MINIMAL INHIBITORY CONCENTRATION OF 2-AMINO-2-METHYL-1-PROPYL […]
as §1

S. epidermidis = experiment: Contact germicidal efficiency (sterilization time); type: cell-based, Staphylococcus epidermidis
Protocol: (§14) CONTACT GERMICIDAL EFFICIENCY OF N-CHLORAMINES AS A FUNCTION
(§15) ^a Time intervals screened 0.5, 1, 2, 3, 4 and 5 minutes.
(§16) ^a Time intervals screened 0.5, 1, 2, 3, 4, 5, 6, 7, 8, 9 and 10
(§17) ^a Time intervals screened 0.5, 1, 2, 3, 4, and 5 minutes.
(§18) ^b Time intervals screened 0.5, 1, 2, 3, 4, 5, 6, 7, 8, 9 and 10
(§19) Immediately preceding the screen, the compound is weighed and diluted with a buffer or other solvent to give the final concentration desired. The buffer or solvent chosen depends on the conditions of the screen and could be one of the following: 0.1 M NaOAc, pH 4.6; 0.1 M NaH2 PO4, pH 7.0; 0.1 M Na2 B4 O7, pH 8.8; 35% methanol in one of the aforementioned buffers; 10% Triton × 100 in buffer, etc.
(§20) The positive chlorine concentration of the test solution is then determined iodometrically.
(§21) Media used for the Screen are Nutrient Broth, BBL# 11479 and Nutrient Agar, BBL# 11472 prepared according to label directions. The broth is dispensed in 75 ml amounts of flasks for overnight cultures and in 5 ml amounts to culture tubes for subculturing during the Screen. Agar plates are prepared as usual.
(§22) Overnight cultures are prepared by inoculating from stock cultures into the 75 ml flasks of nutrient broth and incubating for 15 hours at 37° C.
(§23) The iodometrically characterized test solution is dispensed in 5 ml amounts to seven small stoppered flasks. The organisms are screened one at a time as follows:
(§24) A 0.2 ml portion of the overnight culture is inoculated into 5 ml of 0.9% NaCl for use in controls. A 0.2 ml portion of the overnight culture is inoculated into a flask containing 5 ml of the test solution, an automatic timer is simultaneously triggered and the solution mixed. At time intervals of 30 seconds, 1, 2, 3, 4, 5, 6, 7, 8, 9, and 10 minutes a loopful of the inoculated solution is subcultured into 5 ml of sterile nutrient broth and mixed by a Vortex Genie Mixer, the high dilution serving to stop the action of the compound. At the end of the ten minute screen, the entire procedure is repeated for each of the remaining six organisms. All of the subculture tubes are incubated at 37° C and checked for signs of growth by turbidity at 24 hr., 48 hr., 3, 5, and 7 days. The earliest subculture time at which no growth is present in the subculture tube is considered the endpoint and is recorded as that time, e.g., 7 minutes.
(§25) The test solution is prepared and characterized as above but is made up at twice the concentration desired. The solution is diluted 1:1 with Rehydrated Tissue Culture Dessicated Horse Serum, Difco #5357-72 and dispensed in a 5 ml amount to a small flask. The mixture is incubated at Room Temperature for 30 minutes to allow denaturation of the compound by the serum and then screened as above.
(§26) The 5 ml mixture of serum and test solution are prepared in sequence to allow as close to 30 minutes as possible before the beginning of the screen of each organism.
as §4

K. pneumoniae [3] = experiment: Contact germicidal efficiency (sterilization time); type: cell-based, Klebsiella pneumoniae
Protocol: as §14, §15, §16, §17, §18, §19, §20, §21, §22, §23, §24, §25, §26, §4

P. aeruginosa [4] = experiment: Contact germicidal efficiency (sterilization time); type: cell-based, Pseudomonas aeruginosa
Protocol: as §14, §15, §16, §17, §18, §19, §20, §21, §22, §23, §24, §25, §26, §4

B. bronchiseptica = experiment: Contact germicidal efficiency (sterilization time); type: cell-based, Bordetella bronchiseptica
Protocol: as §14, §15, §16, §17, §18, §19, §20, §21, §22, §23, §24, §25, §26, §4

[5] = Example X, pH 4.6, no horse serum, IV c 404 ppm (69 PPMCl+), IV g 489 ppm (143 PPMCl+)
[6] = Example X, pH 7.0, no horse serum, IV c 1886 ppm (323 PPMCl+), IV g 409 ppm (120 PPMCl+)
[7] = Example X, pH 9.3, no horse serum, IV c 1704 ppm (292 PPMCl+), IV g 319 ppm (94 PPMCl+)
[8] = Example Z, S. pidermidis, pH 4.6, absence of horse serum, IV j 79 ppm (21 PPMCl+), IV k 5800 (1057), IV l 1112 (209)
[9] = Example Z, pH 4.6, absence of horse serum, IV j 79 ppm (21 PPMCl+), IV k 5800 (1057), IV l 1112 (209)

SMILES	MIC (P. aeruginosa [1])	MIC (S. aureus)	MIC (S. pyogenes)	MIC (A. niger)	MIC (E. coli)	MIC (T. mentagrophytes)	MIC (K. pneumoniae [2])	MIC (C. albicans)	other results
CC(=O)OCC(C)(C)N(Cl)Cl [IV a, 2-N,N-Dichloroamino-2-methyl-1-propyl acetate]	62.5 µg/mL	> 62.5 µg/mL	62.5 µg/mL	> 62.5 µg/mL	> 62.5 µg/mL	62.5 µg/mL	> 62.5 µg/mL	> 62.5 µg/mL	
CCCC(=O)OCC(C)(C)NCl [IV b, 2-N-Chloroamino-2-methyl-1-propyl butyrate]	> 62.5 µg/mL	> 62.5 µg/mL	> 62.5 µg/mL	> 62.5 µg/mL	> 62.5 µg/mL	> 62.5 µg/mL	> 62.5 µg/mL	> 62.5 µg/mL	
CCCCCC(=O)OCC(C)(C)NCl [IV d, 2-N-Chloroamino-2-methyl-1-propyl hexanoate]	> 62.5 µg/mL	> 62.5 µg/mL	> 62.5 µg/mL	> 62.5 µg/mL	> 62.5 µg/mL	> 62.5 µg/mL	> 62.5 µg/mL	> 62.5 µg/mL	
CCCCCCCC(=O)OCC(C)(C)NCl [IV e, 2-N-Chloroamino-2-methyl-1-propyl octanoate]	> 62.5 µg/mL	> 62.5 µg/mL	> 62.5 µg/mL	> 62.5 µg/mL	> 62.5 µg/mL	> 62.5 µg/mL	> 62.5 µg/mL	> 62.5 µg/mL	
CCCC(=O)OCC(C)(C)N(Cl)Cl [IV f, 2-N,N-Dichloroamino-2-methyl-1-propyl butyrate]	62.5 µg/mL (≈ 274 µM)	> 62.5 µg/mL	62.5 µg/mL (≈ 274 µM)	> 62.5 µg/mL	> 62.5 µg/mL	> 62.5 µg/mL	> 62.5 µg/mL	> 62.5 µg/mL	
CC(C)(C)C(=O)OCC(C)(C)N(Cl)Cl [IV g, 2-N,N-Dichloroamino-2-methyl-1-propyl 2,2-dimethylproprionate]	250 µg/mL (≈ 1030 µM)	250 µg/mL (≈ 1030 µM)	250 µg/mL (≈ 1030 µM)	> 125 µg/mL	> 125 µg/mL	> 125 µg/mL	> 125 µg/mL	> 125 µg/mL	Sterilization Time (S. epidermidis; Example X, S. epidermidis, pH 4.6, no horse serum, IV c 404 ppm (69 PPMCl+), IV g 489 ppm (143 PPMCl+)): 0.5 min; Sterilization Time (S. epidermidis; Example X, S. epidermidis, pH 7.0, no horse serum, IV c 1886 ppm (323 PPMCl+), IV g 409 ppm (120 PPMCl+)): 2 min; Sterilization Time (S. epidermidis; Example X, S. epidermidis, pH 9.3, no horse serum, IV c 1704 ppm (292 PPMCl+), IV g 319 ppm (94 PPMCl+)): 2 min; Sterilization Time (K. pneumoniae [3]; [5]): 0.5 min; Sterilization Time (K. pneumoniae [3]; [6]): 3 min; Sterilization Time (K. pneumoniae [3]; [7]): 2 min; Sterilization Time (P. aeruginosa [4]; [5]): 0.5 min; Sterilization Time (P. aeruginosa [4]; [6]): 0.5 min; Sterilization Time (P. aeruginosa [4]; [7]): 0.5 min; Sterilization Time (B. bronchiseptica; [5]): 1 min; Sterilization Time (B. bronchiseptica; [6]): 2 min; Sterilization Time (B. bronchiseptica; [7]): 2 min
CCCCCC(=O)OCC(C)(C)N(Cl)Cl [IV h, 2-N,N-Dichloroamino-2-methyl-1-propyl hexanoate]	> 62.5 µg/mL	> 62.5 µg/mL	62.5 µg/mL (≈ 244 µM)	> 62.5 µg/mL	> 62.5 µg/mL	62.5 µg/mL (≈ 244 µM)	> 62.5 µg/mL	> 62.5 µg/mL	
CCCCCCCC(=O)OCC(C)(C)N(Cl)Cl [IV i, 2-N,N-Dichloroamino-2-methyl-1-propyloctanoate]	> 62.5 µg/mL	62.5 µg/mL (≈ 220 µM)	62.5 µg/mL (≈ 220 µM)	> 62.5 µg/mL	> 62.5 µg/mL	62.5 µg/mL (≈ 220 µM)	> 62.5 µg/mL	> 62.5 µg/mL	
CC(C)(COC(=O)c1cccnc1)N(Cl)Cl [IV j, 2-N,N-Dichloroamino-2-methyl-1-propyl nicotinate]									Sterilization Time (S. epidermidis; [8]): 3 min; Sterilization Time (K. pneumoniae [3]; [9]): 1 min; Sterilization Time (P. aeruginosa [4]; [9]): 2 min; Sterilization Time (B. bronchiseptica; [9]): 4 min
C[n+]1cccc(C(=O)OCC(C)(C)N(Cl)Cl)c1 [IV l, 2-N,N-Dichloroamino-2-methyl-1-propyl nicotinate methylfluorosulfonate]									Sterilization Time (S. epidermidis; [8]): 3 min; Sterilization Time (K. pneumoniae [3]; [9]): 5 min; Sterilization Time (P. aeruginosa [4]; [9]): 3 min; Sterilization Time (B. bronchiseptica; [9]): 5 min

— patent US4092420A, “Novel soft N-chloroamino alcohol derivatives exhibiting antibacterial activity” (INTERx Research Corporation, priority 1977, dated 1978)
